# Laboratory results reported in publication PMC6208970, “Linking cytochrome P450 enzymes from Mycobacterium tuberculosis to their cognate ferredoxin partners” (Applied Microbiology and Biotechnology, 2018).
# What was measured:
# [1] = target: CYP143A1 (Mycobacterium tuberculosis) (UniProt P9WPL2); settings: cited from earlier work
# CYP142A1 = target: T1, CYP142A1 (Mycobacterium tuberculosis, UniProt P9WPL5); format: biochemical
# T1 construct: gene cyp142
# CYP124A1 = target: T2, CYP124A1 (Mycobacterium tuberculosis, UniProt P9WPP3); experiment: reconstituted turnover, GC-MS detection of 27-hydroxycholesterol; format: biochemical; settings: 0.5 μM CYP, 50 μM cholesterol in methyl-β-cyclodextrin; FdrA or FprA with FdxD or FdxE; pH 7.4; 37 °C
# T2 construct: gene cyp124
# CYP125A1 = target: T3, CYP125A1 (Mycobacterium tuberculosis, UniProt P9WPP1); experiment: as above; format: biochemical; settings: 0.5 μM CYP, 50 μM cholesterol in methyl-β-cyclodextrin; FdrA or FprA with FdxD or FdxE; pH 7.4; 37 °C
# T3 construct: gene cyp125
# T3 sequence (P9WPP1 whole entry): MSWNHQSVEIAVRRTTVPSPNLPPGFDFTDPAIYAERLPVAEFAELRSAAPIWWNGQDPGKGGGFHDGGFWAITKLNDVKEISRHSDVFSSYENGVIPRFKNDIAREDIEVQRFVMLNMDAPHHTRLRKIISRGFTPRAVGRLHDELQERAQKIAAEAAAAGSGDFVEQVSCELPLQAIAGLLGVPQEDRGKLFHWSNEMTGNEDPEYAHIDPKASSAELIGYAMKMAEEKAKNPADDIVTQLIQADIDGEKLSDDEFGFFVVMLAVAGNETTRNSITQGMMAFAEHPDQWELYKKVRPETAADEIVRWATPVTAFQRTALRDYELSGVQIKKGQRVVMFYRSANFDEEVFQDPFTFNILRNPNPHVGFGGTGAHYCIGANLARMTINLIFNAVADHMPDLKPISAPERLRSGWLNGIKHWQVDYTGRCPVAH
# ferredoxin Rv1786, sequence (O53937 whole entry): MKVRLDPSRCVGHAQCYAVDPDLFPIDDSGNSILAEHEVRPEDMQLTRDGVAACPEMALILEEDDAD
# T1 sequence (P9WPL5 whole entry): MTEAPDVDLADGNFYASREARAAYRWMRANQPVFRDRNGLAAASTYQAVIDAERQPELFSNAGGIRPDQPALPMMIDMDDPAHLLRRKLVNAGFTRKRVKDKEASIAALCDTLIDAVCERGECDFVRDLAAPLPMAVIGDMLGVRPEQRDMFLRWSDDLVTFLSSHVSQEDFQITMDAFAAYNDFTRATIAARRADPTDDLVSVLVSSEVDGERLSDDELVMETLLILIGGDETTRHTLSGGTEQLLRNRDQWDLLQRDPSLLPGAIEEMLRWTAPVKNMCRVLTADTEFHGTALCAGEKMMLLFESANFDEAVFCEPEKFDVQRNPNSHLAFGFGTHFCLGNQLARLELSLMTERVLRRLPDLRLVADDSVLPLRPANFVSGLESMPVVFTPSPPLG
# CYP143A1 (Mycobacterium tuberculosis), sequence (P9WPL2 whole entry): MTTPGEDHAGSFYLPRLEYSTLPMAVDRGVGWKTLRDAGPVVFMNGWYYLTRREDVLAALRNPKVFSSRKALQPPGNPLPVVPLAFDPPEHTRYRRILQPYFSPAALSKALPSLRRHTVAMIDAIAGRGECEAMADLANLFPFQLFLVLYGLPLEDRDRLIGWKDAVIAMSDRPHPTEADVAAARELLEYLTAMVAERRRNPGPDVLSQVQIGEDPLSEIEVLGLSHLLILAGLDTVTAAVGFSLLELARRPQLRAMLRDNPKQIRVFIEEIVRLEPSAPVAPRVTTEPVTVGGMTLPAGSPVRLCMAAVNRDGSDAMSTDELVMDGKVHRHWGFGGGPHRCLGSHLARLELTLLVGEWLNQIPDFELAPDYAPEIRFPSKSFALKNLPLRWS
# T2 sequence (P9WPP3 whole entry): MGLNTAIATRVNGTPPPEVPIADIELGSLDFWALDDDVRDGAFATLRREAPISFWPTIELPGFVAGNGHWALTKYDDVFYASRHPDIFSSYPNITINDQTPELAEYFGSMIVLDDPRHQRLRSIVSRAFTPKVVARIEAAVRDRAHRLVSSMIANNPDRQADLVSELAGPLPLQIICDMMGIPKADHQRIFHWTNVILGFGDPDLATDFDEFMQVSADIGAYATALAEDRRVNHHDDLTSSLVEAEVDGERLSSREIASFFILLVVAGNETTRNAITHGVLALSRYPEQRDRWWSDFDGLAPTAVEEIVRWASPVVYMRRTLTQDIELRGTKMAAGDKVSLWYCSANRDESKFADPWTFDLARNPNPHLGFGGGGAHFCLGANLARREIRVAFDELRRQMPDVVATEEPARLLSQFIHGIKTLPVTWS
Compound,Kd [1] [µM],"reconstituted turnover, GC-MS detection of 27-hydroxycholesterol (CYP142A1)","reconstituted turnover, GC-MS detection of 27-hydroxycholesterol (CYP124A1)","reconstituted turnover, GC-MS detection of 27-hydroxycholesterol (CYP125A1)"
ferredoxin Rv1786 (from UniProt O53937),0.337,–,–,–
CC(C)CCC[C@@H](C)[C@H]1CC[C@H]2[C@@H]3CC=C4C[C@@H](O)CC[C@]4(C)[C@H]3CC[C@]12C [cholesterol],–,CYP142A1 was found to be the most efficient in cholesterol conversion,only FdxD and FdxE were able to support cholesterol conversion,only FdxD and FdxE were able to support cholesterol conversion
